Assay results reported in the supplement of paper PMC4862054.

Columns and labels:
Conditions in all cases: incubation time: 72 h
BT-474 [1] = experiment: normalised response (% of control), CellTox Green; higher = less cell death (100 = DMSO, 0 = benzethonium chloride kill control)
Outline: (§1)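 Plates were normalised with 0.1 % DMSO as 100 and a positive kill control as 0. Breast cancer cell lines in 20 µl suspension had been seeded into 384-well plates with compound at 5 concentrations in 10-fold steps over a compound-specific 10,000-fold range, incubated 72 h, and read for CellTox Green fluorescence (485/520 nm) followed by CellTiter-Glo luminescence. Each value is the normalised signal at a single concentration.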

BT-549 [2] = experiment: as above
Outline: as §1

CAL-120 [3] = experiment: as above
Outline: as §1

CAL-148 [4] = experiment: as above
Outline: as §1

CAL-51 [5] = experiment: as above
Outline: as §1

CAL-85-1 [6] = experiment: as above
Outline: as §1

DU-4475 [7] = experiment: as above
Outline: as §1

HCC1143 [8] = experiment: as above
Outline: as §1

HCC1599 [9] = experiment: as above
Outline: as §1

HCC1937 [10] = experiment: as above
Outline: as §1

HDQ-P1 [11] = experiment: as above
Outline: as §1

Hs578T [12] = experiment: as above
Outline: as §1

MDA-MB-231 [13] = experiment: as above
Outline: as §1

MDA-MB-436 [14] = experiment: as above
Outline: as §1

MDA-MB-453 [15] = experiment: as above
Outline: as §1

MDA-MB-468 [16] = experiment: as above
Outline: as §1

MFM-223 [17] = experiment: as above
Outline: as §1

BT-474 [18] = experiment: normalised response (% of control), CellTiter-Glo; higher = more viable cells (100 = DMSO, 0 = benzethonium chloride kill control)
Outline: as §1

BT-549 [19] = experiment: as above
Outline: as §1

CAL-120 [20] = experiment: as above
Outline: as §1

CAL-148 [21] = experiment: as above
Outline: as §1

CAL-51 [22] = experiment: as above
Outline: as §1

CAL-85-1 [23] = experiment: as above
Outline: as §1

DU-4475 [24] = experiment: as above
Outline: as §1

HCC1143 [25] = experiment: as above
Outline: as §1

HCC1599 [26] = experiment: as above
Outline: as §1

HCC1937 [27] = experiment: as above
Outline: as §1

HDQ-P1 [28] = experiment: as above
Outline: as §1

Hs578T [29] = experiment: as above
Outline: as §1

MCF-10A [30] = experiment: as above
Outline: as §1

MDA-MB-231 [31] = experiment: as above
Outline: as §1

MDA-MB-436 [32] = experiment: as above
Outline: as §1

MDA-MB-453 [33] = experiment: as above
Outline: as §1

MDA-MB-468 [34] = experiment: as above
Outline: as §1

MFM-223 [35] = experiment: as above
Outline: as §1

SK-BR-3 = experiment: as above
Outline: as §1

MCF-10A [36] = experiment: normalised response (% of control), CellTox Green; higher = less cell death (100 = DMSO, 0 = benzethonium chloride kill control)
Outline: as §1

NC(=O)Nc1cc(-c2cccc(F)c2)sc1C(=O)N[C@H]1CCCNC1 [AZD7762] (100 nM)
normalised response (BT-474 [1]): 102% | normalised response (BT-549 [2]): 105% | normalised response (CAL-120 [3]): 99.8% | normalised response (CAL-148 [4]): 102% | normalised response (CAL-51 [5]): 104% | normalised response (CAL-85-1 [6]): 36.1% | normalised response (DU-4475 [7]): 100% | normalised response (HCC1143 [8]): 82.6% | normalised response (HCC1599 [9]): 103% | normalised response (HCC1937 [10]): 125% | normalised response (HDQ-P1 [11]): 103% | normalised response (Hs578T [12]): 64.1% | normalised response (MDA-MB-231 [13]): 105% | normalised response (MDA-MB-436 [14]): 83.7% | normalised response (MDA-MB-453 [15]): 101% | normalised response (MDA-MB-468 [16]): 50.3% | normalised response (MFM-223 [17]): 101% | normalised response (BT-474 [18]): 93.7% | normalised response (BT-549 [19]): 73.4% | normalised response (CAL-120 [20]): 95.9% | normalised response (CAL-148 [21]): 97.9% | normalised response (CAL-51 [22]): 111% | normalised response (CAL-85-1 [23]): 59.5% | normalised response (DU-4475 [24]): 98.4% | normalised response (HCC1143 [25]): 96.8% | normalised response (HCC1599 [26]): 78.5% | normalised response (HCC1937 [27]): 97.2% | normalised response (HDQ-P1 [28]): 95.2% | normalised response (Hs578T [29]): 93% | normalised response (MCF-10A [30]): 91.6% | normalised response (MDA-MB-231 [31]): 88.7% | normalised response (MDA-MB-436 [32]): 92.4% | normalised response (MDA-MB-453 [33]): 83.2% | normalised response (MDA-MB-468 [34]): 99.3% | normalised response (MFM-223 [35]): 104% | normalised response (SK-BR-3): 99.6%

O=C(CCCCCCC(=O)Nc1ccc([C@H]2O[C@@H](CSc3nc(-c4ccccc4)c(-c4ccccc4)o3)C[C@@H](c3ccc(CO)cc3)O2)cc1)NO [Tubacin] (1000 nM)
normalised response (BT-474 [1]): 95.5% | normalised response (BT-549 [2]): 114% | normalised response (CAL-120 [3]): 100% | normalised response (CAL-148 [4]): 99.9% | normalised response (CAL-51 [5]): 93.4% | normalised response (CAL-85-1 [6]): 102% | normalised response (DU-4475 [7]): 101% | normalised response (HCC1143 [8]): 105% | normalised response (HCC1599 [9]): 97.9% | normalised response (HCC1937 [10]): 55.1% | normalised response (HDQ-P1 [11]): 72.7% | normalised response (Hs578T [12]): 93.4% | normalised response (MCF-10A [36]): 113% | normalised response (MDA-MB-231 [13]): 88.2% | normalised response (MDA-MB-436 [14]): 90.3% | normalised response (MDA-MB-453 [15]): 103% | normalised response (MDA-MB-468 [16]): -536% | normalised response (MFM-223 [17]): 86.1% | normalised response (BT-474 [18]): 91.3% | normalised response (BT-549 [19]): 89.3% | normalised response (CAL-120 [20]): 88.6% | normalised response (CAL-148 [21]): 95.4% | normalised response (CAL-51 [22]): 77.8% | normalised response (CAL-85-1 [23]): 72.2% | normalised response (DU-4475 [24]): 91.9% | normalised response (HCC1143 [25]): 90.2% | normalised response (HCC1599 [26]): 93.2% | normalised response (HCC1937 [27]): 82.6% | normalised response (HDQ-P1 [28]): 88.2% | normalised response (Hs578T [29]): 95.3% | normalised response (MCF-10A [30]): 105% | normalised response (MDA-MB-231 [31]): 81.4% | normalised response (MDA-MB-436 [32]): 94.8% | normalised response (MDA-MB-453 [33]): 70.3% | normalised response (MDA-MB-468 [34]): 61.7% | normalised response (MFM-223 [35]): 78.3% | normalised response (SK-BR-3): 95.3%

CC(C)Cn1cnc2c(N)nc3ccccc3c21 [Imiquimod] (250 nM)
normalised response (BT-474 [1]): 88.2% | normalised response (BT-549 [2]): 98.3% | normalised response (CAL-120 [3]): 99.5% | normalised response (CAL-148 [4]): 76.8% | normalised response (CAL-51 [5]): 94.4% | normalised response (CAL-85-1 [6]): 89.3% | normalised response (DU-4475 [7]): 101% | normalised response (HCC1143 [8]): 99.4% | normalised response (HCC1599 [9]): 97.7% | normalised response (HCC1937 [10]): 112% | normalised response (HDQ-P1 [11]): 104% | normalised response (Hs578T [12]): 54.6% | normalised response (MCF-10A [36]): 109% | normalised response (MDA-MB-231 [13]): 102% | normalised response (MDA-MB-436 [14]): 107% | normalised response (MDA-MB-453 [15]): 103% | normalised response (MDA-MB-468 [16]): 119% | normalised response (MFM-223 [17]): 92.9% | normalised response (BT-474 [18]): 110% | normalised response (BT-549 [19]): 105% | normalised response (CAL-120 [20]): 95% | normalised response (CAL-148 [21]): 98% | normalised response (CAL-51 [22]): 99% | normalised response (CAL-85-1 [23]): 97.5% | normalised response (DU-4475 [24]): 103% | normalised response (HCC1143 [25]): 101% | normalised response (HCC1599 [26]): 104% | normalised response (HCC1937 [27]): 93% | normalised response (HDQ-P1 [28]): 97.7% | normalised response (Hs578T [29]): 98.7% | normalised response (MCF-10A [30]): 104% | normalised response (MDA-MB-231 [31]): 105% | normalised response (MDA-MB-436 [32]): 101% | normalised response (MDA-MB-453 [33]): 107% | normalised response (MDA-MB-468 [34]): 97% | normalised response (MFM-223 [35]): 101% | normalised response (SK-BR-3): 105%
